# Data from PubChem BioAssay AID720513 (Broad Institute, 2013).
# Results filed as inconclusive are left out.
# Test system: U2OS PGC1a acetylation AlphaLISA, overnight
# Assay: activators raising PGC1a acetylation in cells, dose response, cell-based, cherry-picked samples, set 6 (AID 720513);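 further: cells made to overexpress flag tagged PGC1a plus GCN5 acetyltransferase by viral infection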
row,Structure (SMILES),AC40
1,COc1ccc(S(=O)(=O)N2CCOCC2)cc1NC(=O)CCNC(=O)c1ccc([N+](=O)[O-])cc1,< 0.3 µM
2,CCCCN(CCCC)S(=O)(=O)c1ccc2oc(C(=O)N3CCOCC3)c(C)c2c1,1.79 µM
3,Cc1ccc(C(=O)c2c[nH]c(C(=O)NCc3cccnc3)c2)cc1,2.67 µM
4,O=C(Cc1ccccc1)Nc1cccc(-c2nc3ncccc3o2)c1,2.71 µM
5,C[C@@H]1CN([C@H](C)CO)C(=O)c2cccc(NC(=O)c3ccc(-c4nccs4)cc3)c2O[C@@H]1CN(C)Cc1ccc(C(=O)Nc2ccccc2N)cc1,< 0.16 µM
6,O=C(Nc1ccc(-c2noc(-c3cccs3)n2)cc1)c1cccnc1,1.27 µM
7,CC(=O)c1cccc(N(C(=O)Cn2nnc3ccccc32)C(C(=O)NCc2ccccc2)c2ccccn2)c1 (centres undefined),10.5 µM
8,COc1ccc(S(=O)(=O)NNC(=O)c2csc(-n3nc(C)cc3C(F)(F)F)n2)cc1,7.43 µM
9,Cc1ccc(CNC(=O)C2CC(c3ccc([N+](=O)[O-])cc3)=NO2)cc1 (centres undefined),4 µM
10,CC(=O)CCS(=O)(=O)c1ccc(C)c(C)c1,6.64 µM
11,O=[N+]([O-])c1ccc(N2CCN(CC3CCCCC3)CC2)cc1,16 µM
12,COc1ccc(C(c2nnnn2C2CCCC2)N2CCC(C)CC2)c(OC)c1 (centres undefined),1.86 µM
13,CCOC(=O)C1=C[C@@H](C(C)(C)C)N(S(=O)(=O)c2ccc(C)cc2)[C@H]1c1ccccc1,3.62 µM
14,O=C(/C=C/Sc1ncn[nH]1)c1ccc(Cl)cc1,0.395 µM
15,CC1CC1C(=O)OCC(=O)NCc1ccc(Cl)cc1 (centres undefined),18.2 µM
16,CCN(CC)c1ccc(N)cc1S(=O)(=O)Nc1ccccc1OC,3 µM
17,CCOC(=O)C1CCCN(S(=O)(=O)c2ccc3c(c2)NC(=O)CO3)C1 (centres undefined),0.439 µM
18,O=C(COCc1cc(-c2ccc3c(c2)OCO3)on1)Nc1cccnc1,0.458 µM
19,CCC(=O)N(CC)c1nc(-c2ccc(OC)cc2)cs1,3.53 µM
20,CC(C)(C)c1ccc(NC(=O)N2CCCN(c3ccc([N+](=O)[O-])cn3)CC2)cc1,0.25 µM
21,C[C@H](CO)N1C[C@H](C)[C@H](CN(C)Cc2ccc(C(=O)Nc3ccccc3N)cc2)Oc2c(NC(=O)c3ccncc3)cccc2C1=O,12 µM
22,COc1cccc(NC(=O)N(C)C[C@H]2OCc3ccccc3-c3c(n(C)c4ccccc34)C(=O)N([C@@H](C)CO)C[C@@H]2C)c1,18.3 µM
23,CCOC(=O)CCc1c(C)c2ccc(O)cc2oc1=O,0.371 µM
24,COc1cccc(C(=O)/C=C/c2ccc(OCC#N)c(OC)c2)c1,6.74 µM
25,CCOc1ccc2c(c1)C(C)=CC(C)(C)N2S(=O)(=O)c1ccc(C)cc1,0.781 µM

row,Structure (SMILES),AC40
1,N#Cc1cccc(C(c2nnnn2C2CCCC2)N2CCCCCC2)c1 (centres undefined),1.24 µM
2,CCC(C)(C)n1nnnc1CN(Cc1ccc(Cl)cc1)Cc1ccco1,1.39 µM
3,Cc1nn2c(NCCCN3CCOCC3)c3c(nc2c1-c1ccccc1)CCC3,3.72 µM
4,Cc1ccc(S(=O)(=O)Nc2ccc3c(c2)C(=O)N([C@@H](C)CO)C[C@@H](C)[C@H](CN(C)C(=O)Nc2cccc4ccccc24)OCCCC[C@H](C)O3)cc1,3.83 µM
5,O=C(c1ccccc1)c1nn(-c2ccc(Cl)cc2)c(=O)cc1C(F)(F)F,0.451 µM
6,Cc1ccc(C(=O)N2CCN(c3ccc(NC(=O)c4ccc(Br)o4)cc3)CC2)cc1,3.72 µM
7,O=C(Nc1ccc2c(c1)OCO2)C1CCN(c2ccc(S(=O)(=O)N3CCOCC3)cc2)CC1,9.15 µM
8,Cc1cc(C)c(S(=O)(=O)Nc2ccccc2-c2ccccc2)c(C)c1,3.95 µM
9,COc1ccc(S(=O)(=O)N(C)C[C@@H]2Oc3cc(C#CC4CC4)ccc3S(=O)(=O)N([C@H](C)CO)C[C@@H]2C)cc1,18 µM
10,CCOC(=O)C(NC(=O)c1ccccc1OCC)(Nc1ncccn1)C(F)(F)F (centres undefined),1.32 µM
11,O=C(NCc1ccccc1)N1CCC(n2cnc3cc(F)ccc32)CC1,1.89 µM
12,COc1cc(C)c(CN2CCN(S(=O)(=O)c3ccc(Cl)s3)CC2)cc1OC,0.525 µM
13,Cc1csc(NC(=O)CSc2nsc(SCC(=O)Nc3nc(C)cs3)c2C#N)n1,4.36 µM
14,COc1ccc(C)cc1NS(=O)(=O)c1ccc(NC(=O)CN(c2cc([N+](=O)[O-])ccc2C)S(C)(=O)=O)cc1,0.426 µM
15,CN1CCN(C(=O)CSc2nc(-c3cccs3)cc(-c3cccs3)c2C#N)CC1,2.77 µM
16,Cc1ccc2c(c1)CC1(CN2C)C(=O)NC(=O)N(C(C)C)C1=O (centres undefined),12 µM
17,C[C@@H]1CN([C@@H](C)CO)C(=O)c2c(c3ccccc3n2C)-c2ccccc2CO[C@@H]1CN(C)C(=O)c1cc(Cl)cc(Cl)c1,12.7 µM
18,COc1ccccc1NC(=O)c1ccc(NC(=O)CNC(=O)c2ccc(OC)c(OC)c2)cc1,15.7 µM
19,CC(=O)n1cc([C@@H]2C=C(C(=O)Nc3ccccc3)O[C@H](OCc3ccc(CO)cc3)C2)c2ccccc21,4.65 µM
20,Cc1cc(C)cc(N(CC(=O)NC2CC3CCC2C3)S(C)(=O)=O)c1 (centres undefined),17.1 µM
21,COc1ccccc1-c1ccc2c(c1)O[C@@H](CN(C)Cc1ccc3c(c1)OCO3)[C@@H](C)CN([C@@H](C)CO)S2(=O)=O,10.6 µM
22,CC(C)C(c1nnnn1Cc1ccccc1)N(Cc1ccco1)Cc1cccs1 (centres undefined),0.907 µM
23,c1coc(CN(Cc2cccs2)Cc2nnnn2C2CCCCC2)c1,2.52 µM
24,CSc1nn(-c2ccc(C(=O)OC(C(=O)NC(N)=O)C(C)C)cc2)c(=S)s1 (centres undefined),4.42 µM
25,COC(=O)C[C@H]1c2cc(C(F)(F)F)ccc2S(=O)(=O)N1Cc1ccc(OC)cc1,5.25 µM

row,Structure (SMILES),AC40
1,Cc1ccc(S(=O)(=O)CCSC(=N)N)cc1,5.17 µM
2,CCOc1ccccc1N(C)C(=O)C1CCN(S(=O)(=O)c2cccc3nonc23)CC1,3.29 µM
3,C[C@H]1CN([C@@H](C)CO)C(=O)c2cccc(NC(=O)Nc3cccc4ccccc34)c2O[C@H]1CN(C)Cc1ccc(C(=O)Nc2ccccc2N)cc1,7.53 µM
4,Nc1ccccc1Oc1ncc(C(F)(F)F)cc1Cl,7.04 µM
5,C[C@@H]1CN([C@@H](C)CO)C(=O)c2c(c3ccccc3n2C)-c2ccccc2CO[C@@H]1CN(C)C(=O)Nc1ccccc1C(F)(F)F,6.99 µM
6,CCCCSc1ccc(NC(=O)c2cccnc2)cc1,1.78 µM
7,O=C1OC(Oc2ccc(Br)cc2)(c2ccccc2)c2ccccc21 (centres undefined),1.46 µM
8,COc1ccc(C(=O)NN(C)c2nc(-c3ccccc3)cc(C)c2S(C)(=O)=O)cc1,19 µM
9,Cc1cc(C(=O)NNS(=O)(=O)c2ccccc2C(F)(F)F)nn1C(C)(C)C,1.04 µM
10,CC(NS(=O)(=O)c1ccccc1Cl)C1CC2CCC1C2 (centres undefined),0.415 µM
11,COc1ccc(CCNC(=O)COc2ccc(S(=O)(=O)N3CCCC3)cc2)cc1,19.3 µM
12,CNC(=O)c1cccn(Cc2ccc(C(F)(F)F)cc2)c1=O,17.5 µM
13,CCOC(=O)C1=CC[C@@H](c2ccccc2)N(S(=O)(=O)c2ccc(C)cc2)[C@H]1c1cccc(OC)c1,9.62 µM
14,COc1ccc([N+](=O)[O-])cc1NCc1ccccc1,2.95 µM
15,O=C(C(Cc1ccccc1)n1cccc1)N1CCN(c2ccccc2)CC1 (centres undefined),7.54 µM
16,CC(Oc1ccc(Cl)cc1Cl)c1nc(-c2ccc(NC(=O)c3cccnc3)cc2)no1 (centres undefined),0.581 µM
17,CCOC(=O)N1CCN(C(=O)C(NS(=O)(=O)c2cccc3nsnc23)c2ccccc2)CC1 (centres undefined),17.9 µM
18,O=S(=O)(c1ccccc1)N(CC(F)(F)F)c1ccc(C(O)(C(F)(F)F)C(F)(F)F)cc1,6.8 µM
19,Cc1cc(S(=O)(=O)c2ccc([N+](=O)[O-])cn2)ccc1Br,0.421 µM
20,COc1ccccc1/C=C1\SC(=S)N(CCC(=O)NCCCn2ccnc2)C1=O,2.88 µM
21,O=C(CC1SC(=Nc2ccc3c(c2)OCCO3)NC1=O)Nc1ccc(F)cc1F (centres undefined),0.191 µM
22,CC1(Cc2ccc(Cl)s2)C(=O)Nc2c(Cl)ccc(Cl)c21 (centres undefined),11.3 µM
23,O=C(COc1ccc(Cl)cc1)NCCCNC(=O)c1cccnc1,1.22 µM
24,CCOC(=O)C1(Cc2ccccc2)CCN(Cc2cccc(OC)c2O)CC1,6.65 µM
25,C[C@H](CO)N1C[C@H](C)[C@@H](CN(C)Cc2ccc3c(c2)OCO3)Oc2ccc(NC(=O)Nc3ccc4c(c3)OCO4)cc2CC1=O,18.2 µM

row,Structure (SMILES),AC40
1,CC(=O)c1ccc(N2CCN(c3ccc(S(=O)(=O)NCCCN(C)C)cc3[N+](=O)[O-])CC2)cc1,1.22 µM
2,C[C@@H]1CN([C@H](C)CO)C(=O)c2c(c3ccccc3n2C)-c2ccccc2CO[C@@H]1CN(C)C(=O)[C@H](C)c1ccccc1,3.36 µM
3,Cc1cc(C)nc(NC(=O)c2c(-c3ccccc3Cl)noc2C)n1,16.8 µM
4,COc1cccc(CN2C[C@@H]3N[C@H](C2)C3c2ccc(-c3ccccc3F)cc2)c1 (some centres undefined),16.3 µM
5,Cc1ccc(S(=O)(=O)N2C[C@@H]3N[C@H](C2)[C@@H]3c2ccc(-c3cccc(C)c3)cc2)cc1,5.18 µM
6,CCOCCn1c(CN(Cc2ccccc2)Cc2ccccc2)nc2c1c(=O)[nH]c(=O)n2C,5.12 µM
7,COc1cc(CN2[C@@H]3CNC[C@H]2C3c2ccc(-c3ccccc3)cc2)cc(OC)c1 (some centres undefined),18.3 µM
8,CCOC(=O)c1ccccc1NS(=O)(=O)c1ccc(OCC)cc1,3.3 µM
9,CCOc1ccc(NC2c3ccccc3C(=O)N2Cc2ccc3c(c2)OCO3)cc1 (centres undefined),16.3 µM
10,COc1ccc(-c2csc3nc(C)nc(N4CCC(C)CC4)c23)cc1OC,3.8 µM
11,Cc1ccccc1NC(=O)c1nc(S(C)(=O)=O)ncc1Cl,0.992 µM
12,CCOC(=O)c1c(-c2ccc(C)cc2C)csc1NC(=O)CSc1nnnn1C,8.11 µM
13,CO[C@@H]1CN(C)C(=O)c2cc(NC(=O)c3ccc(Oc4ccccc4)cc3)ccc2OC[C@@H](C)NC[C@@H]1C,15.2 µM
14,Cc1ccccc1-c1ccc(C2[C@@H]3CN(S(=O)(=O)c4ccccc4C)C[C@H]2N3)cc1 (some centres undefined),12.9 µM
15,O=C(NCc1ccc(Cl)cc1)C1CCC(CNc2c(N3CCCC3)c(=O)c2=O)CC1 (centres undefined),6.36 µM
16,O=C1NCN(c2ccccc2)C12CCN(C(c1cc3ccccc3o1)c1nnnn1C1CCCCC1)CC2 (centres undefined),1.78 µM
17,COc1ccc(OC)c(C(=O)/C=C/c2ccccc2C(F)(F)F)c1,8.62 µM
18,CCN(CC)CCNC(=O)c1ccc2c(c1NCCO)C(=O)c1ccccc1C2=O,14.6 µM
19,CCO[C@H]1OC(C(=O)Nc2ccccc2)=C[C@@H](c2csc3ccccc23)[C@@H]1CCCO,15.7 µM
20,COc1ccc(CCC(=O)NCCS(=O)(=O)N2CCN(c3ccccc3)CC2)cc1,13.4 µM
21,O=C(Cc1ccccc1)N1CCN(c2ccc([N+](=O)[O-])cc2)CC1,0.523 µM
22,COC(=O)CSc1nc(-c2ccccc2)cc(-c2ccco2)c1C#N,6.11 µM
23,CCC(=O)Nc1ccc(C(=O)Cn2ncc(Cl)c(Cl)c2=O)cc1,1.63 µM
24,COc1ccc(S(=O)(=O)Nc2ccc3c(c2)C(=O)N([C@@H](C)CO)C[C@@H](C)[C@H](CN(C)S(=O)(=O)c2ccc(Cl)cc2)OCCCC[C@H](C)O3)cc1,9.66 µM
